# In patent US20130231262A1, “ENGINEERED PROTEIN: "2-COLOR SERCA", AN ION-MOTIVE ATPase FUSED TO CERULEAN AND YELLOW FLUORESCENT PROTEIN” (LOYOLA UNIVERSITY CHICAGO, priority 2012, published 2013):
# Assays:
# [1] = test system: 2-color SERCA (construct 509); settings: cited from earlier work
# [2] = molecular target: T1, 2-color SERCA (construct 509) (Canis lupus familiaris, UniProt O46674); experiment: Tg titration of 2-color SERCA FRET change in AAV-293 cells; type: cell-based, canine
# T1 construct: other: Tg-dependent FRET change of construct 509; mCerulean (Cer) was fused to the N-terminus of canine SERCA2a; fused on or other part: mCerulean at the N-terminus
# T1 sequence (O46674 whole entry, the tested form may be a part): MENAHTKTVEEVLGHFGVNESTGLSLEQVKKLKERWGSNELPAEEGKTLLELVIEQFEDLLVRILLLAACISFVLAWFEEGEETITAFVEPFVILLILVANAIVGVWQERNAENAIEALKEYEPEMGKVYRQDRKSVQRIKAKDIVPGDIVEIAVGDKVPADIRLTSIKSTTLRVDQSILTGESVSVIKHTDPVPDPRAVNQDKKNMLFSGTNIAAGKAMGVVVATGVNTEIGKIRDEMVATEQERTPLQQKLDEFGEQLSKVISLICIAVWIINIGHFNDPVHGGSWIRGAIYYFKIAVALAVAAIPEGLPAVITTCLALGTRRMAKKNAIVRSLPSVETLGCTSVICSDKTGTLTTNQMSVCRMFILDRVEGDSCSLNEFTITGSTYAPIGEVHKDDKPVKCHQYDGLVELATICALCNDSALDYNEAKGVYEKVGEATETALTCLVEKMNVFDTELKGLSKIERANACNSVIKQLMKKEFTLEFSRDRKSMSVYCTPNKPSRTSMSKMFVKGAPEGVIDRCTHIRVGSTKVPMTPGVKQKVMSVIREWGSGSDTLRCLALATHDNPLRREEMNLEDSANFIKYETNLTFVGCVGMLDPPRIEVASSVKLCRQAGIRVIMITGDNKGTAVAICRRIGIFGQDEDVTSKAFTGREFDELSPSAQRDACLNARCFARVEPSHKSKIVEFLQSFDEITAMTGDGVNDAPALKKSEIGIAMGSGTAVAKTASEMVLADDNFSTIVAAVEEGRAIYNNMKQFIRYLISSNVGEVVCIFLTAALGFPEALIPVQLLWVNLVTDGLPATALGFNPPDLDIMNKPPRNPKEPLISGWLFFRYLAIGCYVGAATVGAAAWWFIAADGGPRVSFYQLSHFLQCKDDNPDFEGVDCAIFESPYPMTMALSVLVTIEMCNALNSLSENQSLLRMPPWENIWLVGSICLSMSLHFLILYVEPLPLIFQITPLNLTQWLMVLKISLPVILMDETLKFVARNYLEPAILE
# Description: One consequence of the slow FRET response at low concentrations of Tg is that the apparent EC50 decreased over time. This is evident in FIG. 8B as a left shift in the binding curve with time. This change is quantified in FIG. 8C. The apparent upper limit estimate of EC50 (obtained from the final EC50 value) was approximately 100 nM, which is compatible with the subnanomolar affinity of the Tg-SERCA complex.
compound,measurement,setting,value
"C/C=C(/C)C(=O)O[C@H]1C(C)=C2[C@H]([C@@H]1OC(=O)CCCCCCC)[C@@](C)(OC(C)=O)C[C@H](OC(=O)CCC)[C@@]1(O)[C@H]2OC(=O)[C@@]1(C)O [Tg, thapsigargin]",affinity of the Tg-SERCA complex,[1],subnanomolar
same,EC50,[2],~100 nM
